From patent US5643784A, “Indan derivatives” (H, Lundbeck A/S, priority 1990, dated 1997)

Tests used:
5-HT2 receptors = target: T1, 5-HT2 receptors (Rattus norvegicus, UniProt P14842); assay: Inhibition of 3H-ketanserin binding to 5-HT2 receptors in rat cortex in vitro; conditions: 3H-Ketanserin 0.5 nM, rat cortex, 37° C., 30 min; read-out: Receptor Binding; IC50 5-HT2 3H-Ket
T1 construct: cortical tissue is dissected and weighed; from tissue; host or cells: cortex of male Wistar rats, crude membranes
Description: Method in Hyttel, Pharmacology & Toxicology, 61, 126-129, 1987.
Male Wistar (Mol:Wist) rats (125-250 g) are sacrificed and cortical tissue is dissected and weighed. The tissue is homogenized (Ultra Turrax, 10 sec.) in 10 ml of ice-cold 50 mM tris buffer pH 7.7 (at 25° C.). The centrifuge glassware used in this step has been rinsed by sonication for 10 min. in ethanol. The homogenate is centrifuged twice at 20,000 g for 10 min. at 4° C. with rehomogenization of the pellet in 10 ml ice-cold buffer. The final pellet is homogenized in 500 vol (w/v) ice-cold buffer.
Incubation tubes kept on ice in triplicate receive 100 μl of drug solution in water (or water for total binding) and 2000 μl of tissue suspension (final tissue content corresponds to 4 mg original tissue). […] After incubation for 30 min. the samples are filtered under vacuum (0-50 mBar) through Whatman GF/F filters (25 mm). The tubes are rinsed with 5 ml ice-cold buffer which are then poured on the filters. Thereafter, the filters are washed with 2×5 ml of buffer. The filters are placed in counting vials and 4 ml of appropriate scintillation fluid (e.g. Picofluor™15) are added. After shaking for 1 h and storage 2 hrs in the dark the content of radioactivity is determined by liquid scintillation counting. Specific binding is obtained by subtracting the nonspecific binding in the presence of 1 μM mianserin.
(§1) For determination of the inhibition of binding five concentrations of drugs covering 3 decades are used.
The IC50 value is determined as the concentration at which the binding is 50% of the total binding in control samples minus the nonspecific binding in the presence of 1 μM mianserin.

α1 adrenoceptors = assay: Inhibition of 3H-prazosin binding to α1 adrenoceptors in rat brain in vitro; conditions: 3H-Prazosin 0.25 nM, rat brain, 25° C., 20 min; read-out: Receptor Binding; IC50 α1 3H-Praz
Description: INHIBITION OF ^3 H-PRAZOSIN BINDING TO α1 ADRENOCEPTORS IN RAT BRAIN IN VITRO
Method and results in Hyttel & Larsen, J. Neurochem, 44, 1615-1622, 1985; Skarsfeldt & Hyttel, Eur. J. Pharmacol. 125, 323-340, 1986.
Male Wistar (Mol:Wist) rats (125-200 g) are sacrificed and brain tissue is dissected and weighed. The tissue is homogenized (Ultra Turrax, 10 sec.) in 10 ml of ice-cold […] Tris buffer pH 7,7 (at 25° C.). The homogenate is centrifuged twice at 20,000 g for 10 min. at 4° C. with rehomogenization of the pellet in 10 ml ice-cold buffer. The final pellet is homogenized in 400 vol (w/v) ice-cold buffer.
Incubation tubes kept on ice in triplicate receive 100 μl of drug solution in water (or water for total binding) and 4000μl of tissue suspension (final tissue content corresponds to 10 mg original tissue). The binding experiment is initiated by addition of 100 μl of ^3 H-Prazosin (final concentration 0.25 nM) and by placing the tubes in a 25° C. water bath. After incubation for 20 min. the samples are filtered under vacuum (0-50 mBar) through Whatman GF/F filters (25 mm). The tubes are rinsed with 5 ml ice-cold buffer which then are poured on the filters. Thereafter, the filters are washed with 5 ml of buffer. The filters are placed in counting vials and 4 ml of appropriate scintillation fluid (e.g. Picofluor™15) are added. After shaking for 1 h and storage 2 hrs in the dark the content of radioactivity is determined by liquid scintillation counting. Specific binding is obtained by subtracting the nonspecific binding in the presence of 1 μM of Prazosin.
as §1
The measured cpm are plotted against drug concentration on semilogarithmic paper and the best fitting S-shaped curve is drawn. The IC50 value is determined as the concentration at which the binding is 50% of the total binding in control samples minus the nonspecific binding in the presence of 1 μM of Prazosin.
^3 H-Prazosin=[furoyl-5-^3 H]-Prazosin from New England Nuclear, specific activity approximately 20 Ci/mmol.

T1 sequence (P14842 whole entry): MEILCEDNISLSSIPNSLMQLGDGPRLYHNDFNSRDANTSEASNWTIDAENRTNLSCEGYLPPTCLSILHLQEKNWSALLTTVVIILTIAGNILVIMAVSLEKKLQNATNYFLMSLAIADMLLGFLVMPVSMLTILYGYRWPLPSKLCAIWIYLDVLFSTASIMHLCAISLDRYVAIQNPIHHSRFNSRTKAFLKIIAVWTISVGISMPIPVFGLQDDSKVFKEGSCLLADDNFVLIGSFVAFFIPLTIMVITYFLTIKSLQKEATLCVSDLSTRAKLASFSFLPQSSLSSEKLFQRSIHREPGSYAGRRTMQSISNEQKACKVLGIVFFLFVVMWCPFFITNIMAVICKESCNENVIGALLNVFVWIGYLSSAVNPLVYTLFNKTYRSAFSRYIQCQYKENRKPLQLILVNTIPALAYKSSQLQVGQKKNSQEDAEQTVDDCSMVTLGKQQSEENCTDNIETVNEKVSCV

OCCN1CCN([C@H]2C[C@H](c3ccc(F)cc3)c3cc(F)ccc32)CC1 (relative stereo) [Compound 2, Trans-4-[5-fluoro-3-(4-fluorophenyl)-2,3-dihydro-1H-inden-1-yl]-1-piperazine ethanol]
IC50 (5-HT2 receptors): 21 nM
IC50 (α1 adrenoceptors): 150 nM

O=C1NCCN1CCN1CCN([C@@H]2C[C@@H](c3ccc(F)cc3)c3cc(Cl)ccc32)CC1 (relative stereo) [Compound 4, Trans-1-[2-[4-[5-chloro-3-(4-fluorophenyl)-2,3-dihydro-1H-inden-1-yl]piperazine-1-yl]ethyl]-2-imidazolidinone]
IC50 (5-HT2 receptors): 2.9 nM
IC50 (α1 adrenoceptors): 200 nM

Cc1ccc2c(c1)[C@@H](c1ccc(F)cc1)C[C@@H]2N1CCN(CCN2CCN(C(C)C)C2=O)CC1 (relative stereo) [Compound 12, Trans-1-[2-[4-[3-(4-fluorophenyl)-5-methyl-2,3-dihydro-1-H-inden-1-yl]piperazin-1-yl]ethyl]-3-isopropyl-2-imidazolidinone]
IC50 (5-HT2 receptors): 3 nM
IC50 (α1 adrenoceptors): 120 nM

O=C1OCCN1CCN1CCN([C@H]2C[C@H](c3ccc(F)cc3)c3cc(Cl)ccc32)CC1 (relative stereo) [Compound 14, Trans-3-[2-[4-[5-chloro-3-(4-fluorophenyl)-2,3-dihydro-1-H-inden-1-yl]piperazin-1-yl]ethyl]-2-oxazolidinone]
IC50 (5-HT2 receptors): 23 nM
IC50 (α1 adrenoceptors): 140 nM

O=C1CCCN1CCN1CCN([C@H]2C[C@H](c3ccc(F)cc3)c3cc(Cl)ccc32)CC1 (relative stereo) [Compound 15, Trans-1-[2-[4-[5-chloro-3-(4-fluorophenyl)-2-3-dihydro-1-H-inden-1-yl]piperazin-1-yl]ethyl]-2-pyrrolidinone]
IC50 (5-HT2 receptors): 10 nM
IC50 (α1 adrenoceptors): 370 nM

O=C1NCCN1CCCN1CCN([C@H]2C[C@H](c3ccc(F)cc3)c3cc(Cl)ccc32)CC1 (relative stereo) [Compound 16, Trans-1-[3-[4-[5-chloro-3-(4-fluorophenyl)-2,3-dihydro-1-H-inden-1-yl]piperazin-1-yl]propan-1-yl]-2-imidazolidinone]
IC50 (5-HT2 receptors): 10 nM
IC50 (α1 adrenoceptors): 73 nM

O=c1[nH]c2ccccc2n1CCN1CCN([C@@H]2C[C@@H](c3ccc(F)cc3)c3cc(Cl)ccc32)CC1 (relative stereo) [Compound 25, Trans-1-[2-[4-[5-chloro-3-(4-fluorophenyl)-2,3-dihydro-1H-inden-1-yl]piperazin-1-yl]ethyl]-benzimidazolin-2-one]
IC50 (5-HT2 receptors): 5.6 nM

Fc1ccc([C@@H]2C[C@@H](N3CCN(CCN4CCNC4=S)CC3)c3ccc(F)cc32)cc1 (relative stereo) [Compound 29, Trans-1-[2-[4-[5-fluoro-3-(4-fluorophenyl)-2,3-dihydro-1H-inden-1-yl]piperazin-1-yl]-ethyl]-2-imidazolidinthione]
IC50 (5-HT2 receptors): 1.5 nM
IC50 (α1 adrenoceptors): 110 nM

Fc1ccc([C@@H]2C[C@@H](N3CCN(CCN4CCCNC4=S)CC3)c3ccc(F)cc32)cc1 (relative stereo) [Compound 30, Trans-1-[2-[4-[5-fluoro-3-(4-fluorophenyl)-2,3-dihydro-1H-inden-1-yl]piperazin-1-yl]ethyl]-tetrahydro-2(1H)-pyrimidinethione]
IC50 (5-HT2 receptors): 1.7 nM
IC50 (α1 adrenoceptors): 110 nM

O=C1NCCCN1CCN1CCN([C@@H]2C[C@@H](c3ccc(F)cc3)c3cc(Cl)ccc32)CC1 (single isomer, unassigned) [(+)-34, (+)-Trans-1-[2-[4-[5-chloro-3-(4-fluorophenyl)-2,3-dihydro-1H-inden-1-yl]piperazin-1-yl]ethyl]-tetrahydro-2(1H)-pyrimidinone]
IC50 (5-HT2 receptors): 120 nM

Fc1ccc([C@@H]2C[C@@H](N3CCN(CCN4CCCNC4=S)CC3)c3ccc(F)cc32)cc1 (single isomer, unassigned) [(-)-30, (-)-Trans-1-[2-[4-[5-fluoro-3-(4-fluorophenyl)-2,3-dihydro-1H-inden-1-yl]piperazin-1-yl]ethyl]-tetrahydro-2(1H)-pyrimidinethione]
IC50 (5-HT2 receptors): 42 nM
